From US8883745B2, “C—glycolipids with enhanced Th-1 profile” (New York University, priority 2006, dated 2014)

Columns and labels:
IL-12 = IL-12 levels in sera upon i.v. glycolipid administration to C57BL/6 mice (ELISA); format: in vivo; parameters: IL-12 levels, test 1 / IL-12 levels, test 2 / IL-12 levels, average / IL-12 levels, Total: unit not given here
Experimental: (§1) Five- to six-week-old female C57BL/6 mice and BALB/c mice were purchased from Taconic. Each glycolipid was stored at 1 mg/ml in 100% DMSO. Mice were injected intravenously with 1 μg of each glyocolipid diluted in 200 μL sterile phosphate buffered saline (PBS). At indicated time points, sera were collected from each animal, and concentrations of IFN-γ, IL-4, and IL-12 in the sera were evaluated by enzyme-linked immunosorbent assay (ELISA). Serum concentrations of IFN-γ, IL-4, and IL-12 were evaluated using an ELISA kit (eBioscience, San Diego, Calif.). Briefly, 96 well flat-bottom ELISA plates (NUNC) were coated with capture antibody according to the manufacture's recommendation and incubated overnight at 4° C. The plates were washed with PBS+0.05% Tween 20 (PBS-T), then incubated with manufacturer provided blocking solution for 1 hr at room temperature to block non-specific binding sites. After washing with PBS-T, sera diluted 1:10 was added to the wells and incubated for 2 hrs at room temperature. Plates were then incubated at room temperature for 1 hr with biotintylated detection antibody, washed, incubated with avidin conjugated to horse radish peroxidase (HRP) for 30 min at room temperature, washed, and finally incubated with tetramethylbenzidine substrate solution in the dark for 10 minutes at room temperature. The antibodies, avidin-HRP, and substrate solution were all diluted according to the manufacture's recommendation. Reactions were stopped with 2.0N sulfuric acid and the cytokine concentration in each well was determined by comparing the absorbance at 450 nm in each well to known standards. The levels of Th1- and Th2-type cytokines were determined in two different genetic backgrounds, i.e., in C57BL/6 mice and BALB/c mice. The following compounds were administered: A=compound (A-1 trans-conformer), B=compound (A-2), C=compound (A-3), D=compound (A-4), E=compound (A-5), Z=control (PBS alone), CRONY=α-C-GalCer, KRN=α-GalCer, GCK109 (A-1 trans-conformer), GCK151 (A-1 cis-conformer), GCK152 (A-7). The levels of cytokines were measured at 0, 2, 6, 12, 24, 48, and 72 hours after the compound administration. The levels of Th1-type cytokines IFN-γ and IL-12 are summarized in FIGS. 2A-C and 3A-C, respectively. Table 7 provides IFN-γ/IL-4 and IL-12/IL-4 ratios for various compounds, which can be used as indicators of their ability to selectively stimulate Th1-type immune responses.

IL-4 = IL-4 levels in sera upon i.v. glycolipid administration to C57BL/6 mice (ELISA); format: in vivo; parameters: unit not given here
Experimental: as §1

melanoma metastases = settings: in vivo administration; cited from earlier work
[1] = test system: rodent malaria parasites, P. yoeli and P. berghei; settings: in vivo administration; cited from earlier work

CCCCCCCCCCCCCCCCCCCCCCCCCC(=O)N[C@@H](CC[C@H]1O[C@H](CO)[C@H](O)[C@H](O)[C@H]1O)[C@H](O)[C@H](O)CCCCCCCCCCCCCC [CRONY, reference compound]
IL-12/IL-4 (B6) (IL-12; C57BL/6, ratio calculated from Tables 1-6): 2 | IL-12 levels, average (IL-12; C57BL/6, serum, hour 0): 5 | IL-12 levels, test 1 (IL-12; C57BL/6, serum, hour 0): 5 | IL-12 levels, test 2 (IL-12; C57BL/6, serum, hour 0): 5 | IL-12 levels, average (IL-12; C57BL/6, serum, hour 2): 107 | IL-12 levels, test 1 (IL-12; C57BL/6, serum, hour 2): 0 | IL-12 levels, test 2 (IL-12; C57BL/6, serum, hour 2): 214 | IL-12 levels, average (IL-12; C57BL/6, serum, hour 6): 472.5 | IL-12 levels, test 1 (IL-12; C57BL/6, serum, hour 6): 560 | IL-12 levels, test 2 (IL-12; C57BL/6, serum, hour 6): 385 | IL-12 levels, average (IL-12; C57BL/6, serum, hour 12): 675.5 | IL-12 levels, test 1 (IL-12; C57BL/6, serum, hour 12): 630 | IL-12 levels, test 2 (IL-12; C57BL/6, serum, hour 12): 721 | IL-12 levels, average (IL-12; C57BL/6, serum, hour 24): 117.5 | IL-12 levels, test 1 (IL-12; C57BL/6, serum, hour 24): 235 | IL-12 levels, test 2 (IL-12; C57BL/6, serum, hour 24): 0 | IL-12 levels, average (IL-12; C57BL/6, serum, hour 48): 0 | IL-12 levels, test 1 (IL-12; C57BL/6, serum, hour 48): 0 | IL-12 levels, test 2 (IL-12; C57BL/6, serum, hour 48): 0 | IL-12 levels, average (IL-12; C57BL/6, serum, hour 72): 0 | IL-12 levels, test 1 (IL-12; C57BL/6, serum, hour 72): 0 | IL-12 levels, test 2 (IL-12; C57BL/6, serum, hour 72): 0 | IL-12 levels, Total (IL-12; C57BL/6, serum, total over hours 0-72): 1379 | IL-4 level, average (IL-4; hour 0): 46 | IL-4 level, test 1 (IL-4; hour 0): 46 | IL-4 level, test 2 (IL-4; hour 0): 46 | IL-4 level, average (IL-4; hour 2): 464 | IL-4 level, test 1 (IL-4; hour 2): 286 | IL-4 level, test 2 (IL-4; hour 2): 642 | IL-4 level, average (IL-4; hour 6): 73 | IL-4 level, test 1 (IL-4; hour 6): 48 | IL-4 level, test 2 (IL-4; hour 6): 98 | IL-4 level, average (IL-4; hour 12): 34 | IL-4 level, test 1 (IL-4; hour 12): 12 | IL-4 level, test 2 (IL-4; hour 12): 56 | IL-4 level, average (IL-4; hour 24): 23 | IL-4 level, test 1 (IL-4; hour 24): 16 | IL-4 level, test 2 (IL-4; hour 24): 30 | IL-4 level, average (IL-4; hour 48): 11.5 | IL-4 level, test 1 (IL-4; hour 48): 17 | IL-4 level, test 2 (IL-4; hour 48): 6 | IL-4 level, average (IL-4; hour 72): 21.5 | IL-4 level, test 1 (IL-4; hour 72): 15 | IL-4 level, test 2 (IL-4; hour 72): 28 | IL-4 level, Total (IL-4; total over hours 0-72): 674 | improved activity against melanoma metastases (as compared to α-GalCer) (melanoma metastases): 100 fold | improved activity against malaria (as compared to α-GalCer) [1]: 1000 fold
